Laboratory results published in patent US10941138B2, “Quinoline and isoquinoline derivatives for treating pain and pain related conditions” (ESTEVE PHARMACEUTICALS, S.A., priority 2016, dated 2021).

These molecules were tested against human α2δ-1 subunit of Cav2.2 calcium channel (Homo sapiens (Human), UniProt P54289) (assay: Binding assay to human α2δ-1 subunit of Cav2.2 calcium channel ([3H]-Gabapentin)). Settings: Table 1, human α2δ-1 enriched membranes, read-out: Ki (nM) alpha2delta Hum.
Sequence of human α2δ-1 subunit of Cav2.2 calcium channel (P54289 25-1103): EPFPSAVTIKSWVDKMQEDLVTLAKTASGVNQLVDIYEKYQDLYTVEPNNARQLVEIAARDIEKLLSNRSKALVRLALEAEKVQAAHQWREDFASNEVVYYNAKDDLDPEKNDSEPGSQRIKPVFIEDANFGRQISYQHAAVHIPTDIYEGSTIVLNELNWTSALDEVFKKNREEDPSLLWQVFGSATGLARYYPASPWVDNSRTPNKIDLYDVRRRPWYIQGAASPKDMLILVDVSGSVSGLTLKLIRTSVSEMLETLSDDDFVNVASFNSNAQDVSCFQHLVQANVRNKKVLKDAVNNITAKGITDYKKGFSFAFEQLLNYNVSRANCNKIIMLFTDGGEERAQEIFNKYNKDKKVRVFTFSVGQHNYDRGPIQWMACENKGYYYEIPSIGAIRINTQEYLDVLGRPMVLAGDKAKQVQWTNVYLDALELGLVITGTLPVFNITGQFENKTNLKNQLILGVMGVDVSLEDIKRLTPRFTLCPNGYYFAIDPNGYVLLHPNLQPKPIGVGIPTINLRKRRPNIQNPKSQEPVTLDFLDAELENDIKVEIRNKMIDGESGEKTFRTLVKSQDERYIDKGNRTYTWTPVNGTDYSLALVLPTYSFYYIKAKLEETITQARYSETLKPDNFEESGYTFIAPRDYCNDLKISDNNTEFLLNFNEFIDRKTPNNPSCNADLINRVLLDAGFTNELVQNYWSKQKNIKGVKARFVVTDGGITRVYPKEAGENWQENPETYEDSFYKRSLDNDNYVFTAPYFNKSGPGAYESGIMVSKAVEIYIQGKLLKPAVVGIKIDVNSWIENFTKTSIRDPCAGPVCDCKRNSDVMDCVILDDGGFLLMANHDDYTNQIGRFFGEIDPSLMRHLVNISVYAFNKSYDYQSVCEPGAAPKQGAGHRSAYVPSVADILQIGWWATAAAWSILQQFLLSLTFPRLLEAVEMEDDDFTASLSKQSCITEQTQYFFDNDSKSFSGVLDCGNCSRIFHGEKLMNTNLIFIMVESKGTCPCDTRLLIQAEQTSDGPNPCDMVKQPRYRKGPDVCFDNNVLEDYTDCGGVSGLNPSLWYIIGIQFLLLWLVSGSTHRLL
Method: Binding Assay to Human α2δ-1 Subunit of Cav2.2 Calcium Channel.
Human α2δ-1 enriched membranes (2.5 μg) were incubated with 15 nM of radiolabeled [3H]-Gabapentin in assay buffer containing Hepes-KOH 10 mM, pH 7.4.
NSB (non specific binding) was measured by adding 10 μM pregabalin. The binding of the test compound was measured at five different concentrations. After 60 min incubation at 27° C., binding reaction was terminated by filtering through Multiscreen GF/C (Millipore) presoaked in 0.5% polyethyleneimine in Vacuum Manifold Station, followed by 3 washes with ice-cold filtration buffer containing 50 mM Tris-HCl, pH 7.4. Filter plates were dried at 60° C. for 1 h and 30 μl of scintillation cocktail were added to each well before radioactivity reading.
Readings were performed in a Trilux 1450 Microbeta radioactive counter (Perkin Elmer).
With `CNCCC(Oc1ccnc2ccccc12)c1cccs1` (centres unmarked) [Example 4, N-methyl-3-(quinolin-4-yloxy)-3-(thiophen-2-yl)propan-1-amine] the Ki was ≥ 3000 nM.
In the case of `CCNCCC(Oc1cccc2cnccc12)c1cccs1` (centres unmarked) [Example 5, N-ethyl-3-(isoquinolin-5-yloxy)-3-(thiophen-2-yl)propan-1-amine], the Ki is reported as < 100 nM.
In the case of `c1ccc(CNCCC(Oc2cccc3cnccc23)c2cccs2)cc1` (centres unmarked) [Example 6, N-benzyl-3-(isoquinolin-5-yloxy)-3-(thiophen-2-yl)propan-1-amine], the Ki is reported as ≥ 3000 nM.
With `CNCC[C@@H](Oc1ccc2ncccc2c1)c1cccs1` [Example 7, (R)—N-Methyl-3-(quinolin-6-yloxy)-3-(thiophen-2-yl)propan-1-amine] the Ki was ≥ 3000 nM.
For `CN(C)CCC(Oc1nccc2ccccc12)c1cccs1` (centres unmarked) [Example 8, 3-(isoquinolin-1-yloxy)-N,N-dimethyl-3-(thiophen-2-yl)propan-1-amine], the Ki was ≥ 3000 nM.
With `CNCCC(Oc1cccc2c(C(N)=O)nccc12)c1cccs1` (centres unmarked) [Example 16, 5-(3-(methylamino)-1-(thiophen-2-yl)propoxy)isoquinoline-1-carboxamide] the Ki was < 100 nM.
In the case of `CNCCC(Oc1cccc2ccncc12)C1CCOCC1` (centres unmarked) [Example 19, 3-(isoquinolin-8-yloxy)-N-methyl-3-(tetrahydro-2H-pyran-4-yl)propan-1-amine], the Ki is reported as ≥ 3000 nM.
For `CNCCC(Oc1cccc2ncccc12)C1CCOCC1` (centres unmarked) [Example 20, N-methyl-3-(quinolin-5-yloxy)-3-(tetrahydro-2H-pyran-4-yl)propan-1-amine], the Ki was ≥ 3000 nM.
In the case of `CNCCC(Oc1cccc2ccncc12)c1cccnc1` (centres unmarked) [Example 21, 3-(isoquinolin-8-yloxy)-N-methyl-3-(pyridin-3-yl)propan-1-amine], the Ki is reported as ≥ 3000 nM.
With `CNCCC(Oc1cccc2ccncc12)c1ccccn1` (centres unmarked) [Example 22, 3-(isoquinolin-8-yloxy)-N-methyl-3-(pyridin-2-yl)propan-1-amine] the Ki was ≥ 3000 nM.
`CNCCC(Oc1cccc2cnccc12)c1ccccn1` (centres unmarked) [Example 23, 3-(isoquinolin-5-yloxy)-N-methyl-3-(pyridin-2-yl)propan-1-amine] was tested, and the Ki was ≥ 3000 nM.
In the case of `CNCCC(Oc1cccc2ccncc12)c1cccc(C(F)(F)F)n1` (centres unmarked) [Example 24, 3-(isoquinolin-8-yloxy)-N-methyl-3-(6-(trifluoromethyl)pyridin-2-yl)propan-1-amine], the Ki is reported as ≥ 3000 nM.
For `CNCCC(Oc1cccc2cnccc12)c1cncc(Cl)c1` (centres unmarked) [Example 26, 3-(5-chloropyridin-3-yl)-3-(isoquinolin-5-yloxy)-N-methylpropan-1-amine], the Ki was ≥ 3000 nM.
With `CNCCC(Oc1cccc2ccncc12)c1ccncc1` (centres unmarked) [Example 27, 3-(isoquinolin-8-yloxy)-N-methyl-3-(pyridin-4-yl)propan-1-amine] the Ki was ≥ 3000 nM.
`CNCCC(Oc1cccc2cnccc12)c1ccc(C(F)(F)F)nc1` (centres unmarked) [Example 28, 3-(isoquinolin-5-yloxy)-N-methyl-3-(6-(trifluoromethyl)pyridin-3-yl)propan-1-amine] was tested, and the Ki was ≥ 3000 nM.
For `CNCCC(Oc1cccc2cnccc12)c1cc(C(F)(F)F)ccn1` (centres unmarked) [Example 29, 3-(isoquinolin-5-yloxy)-N-methyl-3-(4-(trifluoromethyl)pyridin-2-yl)propan-1-amine], the Ki was ≥ 3000 nM.
`CNCCC(Oc1cccc2ncccc12)c1cc(C(F)(F)F)ccn1` (centres unmarked) [Example 31, N-methyl-3-(quinolin-5-yloxy)-3-(4-(trifluoromethyl)pyridin-2-yl)propan-1-amine] was tested, and the Ki was ≥ 3000 nM.
In the case of `CNCCC(Oc1cccc2ncccc12)c1nc(C)cs1` (centres unmarked) [Example 32, N-methyl-3-(4-methylthiazol-2-yl)-3-(quinolin-5-yloxy)propan-1-amine], the Ki is reported as 100 to 500 nM.
`CNCCC(Oc1cccc2ncccc12)c1ccccn1` (centres unmarked) [Example 33, N-methyl-3-(pyridin-2-yl)-3-(quinolin-5-yloxy)propan-1-amine] was tested, and the Ki was ≥ 3000 nM.
With `CNCCC(Oc1cccc2ncccc12)c1ncc(C)s1` (centres unmarked) [Example 34, N-methyl-3-(5-methylthiazol-2-yl)-3-(quinolin-5-yloxy)propan-1-amine] the Ki was 500 to 3000 nM.
